From patent US4761409A, “Cephem derivatives” (Sumitomo Pharmaceuticals Company, Limited, priority 1984, dated 1988)
≈ marks a conversion by molar mass, not a printed value. Blank lines part the entries; values can stand above or below the compound they belong to.

Tests used:
[1] = test system: Staphylococcus aureus 209P; test: in vitro antimicrobial activity test (MIC); assay type: cell-based
[2] = test system: Staphylococcus epidermidis IAM1296; test: in vitro antimicrobial activity test (MIC); assay type: cell-based
[3] = test system: Escherichia coli NIHJ JC-2; test: in vitro antimicrobial activity test (MIC); assay type: cell-based; settings: NIHJJC2
Serratia marcescens X100 = test: in vitro antimicrobial activity test (MIC); assay type: cell-based
[4] = test system: Citrobacter freundii GN346; test: in vitro antimicrobial activity test (MIC); assay type: cell-based
[5] = oral absorbability test: urinary excretion in mice after oral administration; assay type: in vivo; settings: mouse, urine, dose: 50 mg/kg, read-out: Urinary excretion rate in mice after oral administration
[6] = test system: resistant bacteria which produce β-lactamase; settings: background, cephem antibiotics for oral administration; cited from earlier work
bacteria = settings: background, compared with commercially available cephem antibiotics; cited from earlier work

MIC [1]: 0.1 µg/mL (≈ 0.195 µM) | MIC [2]: 1.56 µg/mL (≈ 3.04 µM) | MIC [3]: 0.1 µg/mL (≈ 0.195 µM) | MIC (Serratia marcescens X100): 0.78 µg/mL (≈ 1.52 µM) | MIC [4]: 0.78 µg/mL (≈ 1.52 µM)
SMILES: CO/N=C(\C(=O)NC1C(=O)N2C(C(=O)O)=C(CSc3nc(C)ns3)CSC12)c1cscn1 (stereo not drawn) [Example 1, 7-[(Z)-2-Methoxyimino-2-(thiazol-4-yl)acetamido]-3-(3-methyl-1 2,4-thiadiazol-5-yl)thiomethyl-3-cephem-4-carboxylic acid]

MIC [1]: 0.2 µg/mL (≈ 0.401 µM) | MIC [2]: 1.56 µg/mL (≈ 3.13 µM) | MIC [3]: 0.2 µg/mL (≈ 0.401 µM) | MIC (Serratia marcescens X100): 0.78 µg/mL (≈ 1.56 µM) | MIC [4]: 0.78 µg/mL (≈ 1.56 µM)
SMILES: CO/N=C(\C(=O)NC1C(=O)N2C(C(=O)O)=C(CSc3ncns3)CS[C@H]12)c1cscn1 (stereo partly drawn) [Example 2, 7-[(Z)-2-Methoxyimino-2-(thiazol-4-yl)acetamido]-3-(1,2,4-thiadiazol-5-yl)thiomethyl-3-cephem-4-carboxylic acid]

dose excreted [5]: 32%
SMILES: CCOC(=O)OC(C)OC(=O)C1=C(CSc2nc(C)ns2)CS[C@@H]2C(NC(=O)/C(=N\OC)c3cscn3)C(=O)N12 (stereo partly drawn) [Example 6, 1-Ethoxycarbonyloxyethyl 7-[(Z)-2-methoxyimino-2-(thiazol-4-yl)acetamido]-3-(3-methyl-1,2,4-thiadiazol-5-yl)thiomethyl-3-cephem-4-carboxylate]

dose excreted [5]: 32%
SMILES: CO/N=C(\C(=O)NC1C(=O)N2C(C(=O)OCc3oc(=O)oc3C)=C(CSc3ncns3)CS[C@H]12)c1cscn1 (stereo partly drawn) [Example 15, (5-Methyl-2-oxo-1,3-dioxolen-4-yl)methyl-7-[(Z)-2-methoxyimino-2-(thiazol-4-yl)acetamido]-3-(1,2,4-thiadiazol-5-yl)thiomethyl-3-cephem-4-carboxylate]

SMILES: N[C@@H](C(=O)N[C@@H]1C(=O)N2C(C(=O)O)=C(Cl)CS[C@H]12)c1ccccc1 [cefaclor]
activity on resistant bacteria which produce β-lactamase [6]: ineffective | antimicrobial activity and width of the antimicrobial spectrum (bacteria): slightly inferior

SMILES: N[C@@H](C(=O)N[C@@H]1C(=O)N2C(C(=O)O)=C(CSc3c[nH]nn3)CS[C@H]12)c1ccc(O)cc1 [cefatrizine]
activity on resistant bacteria which produce β-lactamase [6]: ineffective | antimicrobial activity and width of the antimicrobial spectrum (bacteria): slightly inferior

SMILES: CC1=C(C(=O)O)N2C(=O)[C@@H](NC(=O)[C@H](N)c3ccccc3)[C@H]2SC1 [cephalexin]
activity on resistant bacteria which produce β-lactamase [6]: ineffective | antimicrobial activity and width of the antimicrobial spectrum (bacteria): slightly inferior
